According to PMC11540844, “Enhancing transcription–replication conflict targets ecDNA-positive cancers” (Nature, 2024):
Read-outs that look alike come from different tables or passages of the source.

What was measured:
[1] = system: COLO320DM cells; assay: Cell viability / CTG proliferation (CellTiter-Glo); format: cell-based, human
Experimental: (§1) Cell viability assay was performed using CellTiter-Glo (Promega, catalgoue no. G8461) as previously described. Briefly, cells were seeded into a 384-well plate one day before adding inhibitors. Equal volumes of vehicles or drugs diluted at indicated concentration were added into each well the next day, and the cells were incubated for three days. On the third day, after equilibrating plate and CellTiter-Glo reagent at room temperature for 30 min, reagent was added into each well and incubated for 15 min at room temperature. Luminescence was measured using a Synergy 2 microplate reader. Four biological replicates were performed for each condition. Data analysis was performed with GraphPad Prism (v.9.1.0).

[2] = system: COLO320HSR cells; assay: Cell viability / CTG proliferation (CellTiter-Glo); format: cell-based, human; details: for IC50: Extended Data Fig. 8
Experimental: as §1

[3] = system: SNU16 cells; assay: Cell viability (CellTiter-Glo); format: cell-based, human; details: Extended Data Fig. 8; read-out: IC50 SNU16
Experimental: as §1, with “(v.9.1.0). […]” for “(v.9.1.0).”

[4] = system: GBM39HSR cells; assay: Cell viability (CellTiter-Glo); format: cell-based, human; details: Extended Data Fig. 8
Experimental: as §1

[5] = system: GBM39ec cells; assay: Cell viability (CellTiter-Glo); format: cell-based, human; details: Extended Data Fig. 8
Experimental: as §1

[6] = system: γH2AX in COLO320DM and COLO320HSR cells; assay: γH2AX IF combined with EdU labelling; format: cell-based, human; details: COLO320DM vs COLO320HSR, especially EdU+ cells
Experimental: Coverslips were coated with 100 µg ml^−^1 poly-L-lysine overnight or 10 µg ml^−^1 laminin for 1 h at 37 °C before seeding cells. Asynchronized cells were seeded onto slides and subject to different treatment. Where indicated, EdU was added to each well at 10 µg ml^−^1 30 min before collecting samples. IF and dual-IF DNA FISH staining were performed as described before. Briefly, slides were fixed with ice-cold 4% paraformaldehyde (PFA) for 15 min, followed by permeabilization with 0.5% Triton X-100 in PBS for 15 min at room temperature. Samples were blocked with 3% BSA in PBS for 1 h at room temperature before incubation with primary antibody diluted in blocking buffer at 4 °C overnight. Dilution ratio for first antibodies was as follows: γH2Ax, 1:500; pRPA2-S33, 1:1,000; pCHK1S345, 1:250; 53BP1, 1:500; cyclin A, 1:100; pRNAPII S2/S4, 1:1,000. […]
Image analysis and quantification were performed using the open-source software CellProfiler (v.4.2.1). For foci number analysis, DAPI staining, IF staining and DNA FISH channel were analysed through automatic thresholding and segmentation to cell nuclei, pRPA2S33/γH2AX foci and DNA FISH foci respectively. […] For fluorescence intensity measurement, nuclei were called based on DAPI channel through automatic thresholding and segmentation; mean fluorescence intensity was retrieved by measuring mean fluorescence intensity within each nucleus.

[7] = system: ecDNA-containing tumour cells; assay: TUNEL and PI-Annexin V staining (apoptosis); format: cell-based, human; details: 1 µM CHIR-124, ecDNA-containing vs HSR cells
Experimental: TUNEL assay (Invitrogen, catalogue no. C10617) was performed to detect DNA fragmentation during apoptosis. COLO320DM, COLO320HSR and SNU16 cells were treated with 1 µM CHIR-124 for indicated times. All cells including floating cells were collected and spun down onto slides using a cytospin (Thermo Scientific Cytospin 4 Centrifuge). Slides were fixed with 4% PFA and permeabilized with 0.25% Triton X-100, followed by labelling of free double strand end with EdUTP by reaction catalysed by TdT enzyme in a humidified chamber at 37 °C for 60 min. Incorporated EdUTP was detected through Click-iT Plus TUNEL reaction according to the manufacturer’s manual at 37 °C for 30 min. Slides were counterstained with DAPI and mounted with ProLong Diamond Antifade.
Cell apoptosis was detected through flow cytometry using a FITC Annexin V Apoptosis Detection Kit (BD Biosciences, catalogue no. 556547). Cells were treated with 1 µM of CHIR-124 for the indicated time, and all the cells including floating cells were collected. After washing with PBS twice and cell number counting, cells were resuspended in 1× binding buffer provided by the kit at a concentration of 1 × 10^6 cells per millilitre. […] After incubation at room temperature for 15 min, all the samples were analysed with BD LSR II flow cytometry (BD Biosciences) within 1 h. Flow cytometry data were analysed through Beckman Coulter Kaluza software (v.2.1).

[8] = biological target: T1, Full-length human CHK1 protein (Homo sapiens, UniProt O14757); assay: Kinase HTRF biochemical assay (CHK1 enzyme inhibition); details: HTRF KinEASE, ATP 1 mM; read-out: CHK1 biochemical potency (IC50)
T1 construct: purchased Carna Biosciences, Inc. 02-117
T1 sequence (O14757 1-476): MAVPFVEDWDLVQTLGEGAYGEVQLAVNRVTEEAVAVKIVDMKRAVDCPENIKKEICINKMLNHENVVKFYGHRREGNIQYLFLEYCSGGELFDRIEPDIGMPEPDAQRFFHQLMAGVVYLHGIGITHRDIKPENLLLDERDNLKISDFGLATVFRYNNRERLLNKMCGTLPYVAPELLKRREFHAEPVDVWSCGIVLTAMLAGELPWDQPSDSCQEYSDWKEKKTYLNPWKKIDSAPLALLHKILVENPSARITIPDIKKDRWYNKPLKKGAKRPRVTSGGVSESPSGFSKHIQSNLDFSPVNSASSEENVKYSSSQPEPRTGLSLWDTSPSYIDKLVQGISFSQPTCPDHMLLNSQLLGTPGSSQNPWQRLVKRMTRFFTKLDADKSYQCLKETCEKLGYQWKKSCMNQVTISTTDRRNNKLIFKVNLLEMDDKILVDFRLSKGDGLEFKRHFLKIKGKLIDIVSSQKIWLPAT
Experimental: CHK1 enzyme activity was measured using a homogeneous time resolved fluorescence (HTRF) KinEASE assay (Cisbio, catalogue no. 62ST1PEC). Full-length human CHK1 protein (GenBank accession number NP_001265.1) was obtained from Carna Biosciences, Inc. (catalogue no. 02-117). The enzyme reaction was carried out in assay buffer containing (final concentrations): CHK1 enzyme (0.012 ng µl^−^1), MgCl2 (5 mM) and DTT (1 mM). To determine compound dose response, DMSO stock solutions were serially diluted in a ten-point concentration series in duplicate. Compound solution (50 nl) was added to 384-well assay plates (Greiner, catalogue no. 784075). To each well containing compound solution was added assay buffer solution (5 µl). Plates were centrifuged at 1,000 rpm for 1 min, then incubated at room temperature for 10 min. The reaction was started by addition of substrate buffer (5 µl per well) containing (final concentrations): STK substrate 1-biotin (120 nM) and ATP (1 mM). Assay plates were centrifuged at 1,000 rpm for 1 min, then incubated at room temperature for 60 min. The reaction was stopped by the addition of detection buffer (Cisbio, 10 µl) containing (final concentrations): STK antibody cryptate (0.25 nM) and streptavidin-XL665 (7.5 nM). […] HTRF signal was read on an EnVision multimode plate reader (Cisbio) in HTRF mode. […]

[9] = system: CHK1/CHK2; assay: CHK1/CHK2 selectivity; format: biochemical
[10] = system: pCHK1-S345 in HT29 cells; assay: AlphaLISA SureFire Ultra p-CHK1 (Ser345) assay in HT29 cells; format: cell-based; details: 16 h, read-out: CHK1 cellular potency AlphaLisa (IC50)
Experimental: Compound activity in cells was measured using an AlphaLISA SureFire Ultra p-CHK1 (Ser345) assay (Perkin Elmer, catalogue no. ALSU-PCHK1-A10K). HT29 cells were cultured in McCoy 5 A medium with 10% FBS and 1% penicillin-streptomycin and seeded to 96-well plates (Corning, catalogue no. 3599). Compounds were serially diluted in DMSO over a 10-point dose range with 3-fold dilution, and compound solution was added to each well containing cells. Plates were centrifuged at 1,000 rpm for 30 s. Plates were incubated at 37 °C for 16 h. Supernatant was removed by flicking the plate against a paper towel. Wells were washed once with PBS solution. To each well was added freshly prepared lysis buffer and plates were agitated on a plate shaker at 400 rpm for 30 min. The 96-well cell plates were centrifuged at 1,500 rpm for 1 min. From each well was transferred 10 µl of the lysates to a 384-well Optiplate (Perkin Elmer, catalogue no. 6007290). To each well was added Acceptor Mix (5 µl) and the plates were sealed and wrapped in foil. Plates were agitated on a plate shaker for 2 min, then incubated at room temperature for 1 h. To each well was added Donor Mix (5 µl) and the plates were sealed and wrapped in foil. Plates were agitated on a plate shaker for 2 min, then incubated at room temperature for 1 h. AlphaLisa signal was read on an EnVision multimode plate reader (Perkin Elmer). […]

[11] = Extended Data Fig. 8, read-out: IC50 COLO320DM

Row | IC50 [8] [nM] | IC50 [10] [nM] | IC50 ([1]; COLO320DM cells, read-out: CTG proliferation ecDNA+ (IC50)) [nM] | Compound | IC50 [1, 11] [nM] | IC50 [2] [nM] | IC50 fold higher in COLO320HSR compared to COLO320DM ([2]; Fig. 3d) | IC50 [3] [nM] | IC50 [4] [nM] | IC50 [5] [nM] | DNA damage (γH2AX IF) [6] | cell apoptosis (TUNEL, PI-Annexin V) [7] | CHK1/CHK2 selectivity [9] [×]
1 |  |  |  | O=c1[nH]c2ccc(Cl)cc2c(N[C@@H]2CN3CCC2CC3)c1-c1nc2ccccc2[nH]1 [CHIR-124] | 146 | 1120 | approximately 4 fold | 150 | 1660 | 581 | significantly higher DNA damage in COLO320DM compared with COLO320HSR | more rapid and higher degree of cell apoptosis | 
2 | 12 | 122 | 105 | N[C@@H]1CCCN(c2c(Br)cnc3[nH]cc(NC(=O)C4CC4)c23)C1 [GDC-0575] | 167 | 588 |  |  |  |  |  |  | 1.5
